# Reference: the supplement of paper PMC10307832
# Tests used:
# Experiment in all cases: relative viability (nuclei count vs DMSO), 5 days (fraction); higher = more cells survive
# [1] = compound: CC[C@H](Nc1ncnc2[nH]cnc12)c1nc2cccc(F)c2c(=O)n1-c1ccccc1 [Idelalisib] + CCNC(=O)c1noc(-c2cc(C(C)C)c(O)cc2O)c1-c1ccc(CN2CCOCC2)cc1 [Luminespib] (partner 0.01 µM)
# How it was run: (§1)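 Medians of duplicate plates are given as relative viability. That measure is the nuclei count in treated wells divided by the count in vehicle wells. Counts were taken on 4× images of lung cancer cell lines in 1536-well plates, 5 days after pin-tool dosing the day after seeding with one drug alone or a fixed anchor-drug dose plus five library-drug doses (not always all listed) in √10 steps.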
# [2] = compound: Nc1nc2[nH]cc(CCc3ccc(C(=O)N[C@@H](CCC(=O)O)C(=O)O)cc3)c2c(=O)[nH]1 [Pemetrexed] + Nc1ncn([C@H]2C[C@H](O)[C@@H](CO)O2)c(=O)n1 [Decitabine] (partner 2 µM)
# How it was run: as §1
# [3] = compound: CC[C@H](Nc1ncnc2[nH]cnc12)c1nc2cccc(F)c2c(=O)n1-c1ccccc1 [Idelalisib] + CS(=O)(=O)CCNCc1ccc(-c2ccc3ncnc(Nc4ccc(OCc5cccc(F)c5)c(Cl)c4)c3c2)o1 [Lapatinib] (partner 2 µM)
# How it was run: as §1
# [4] = compound: CC[C@H](Nc1ncnc2[nH]cnc12)c1nc2cccc(F)c2c(=O)n1-c1ccccc1 [Idelalisib] + CC(C)C[C@H](NC(=O)[C@H](Cc1ccccc1)NC(=O)c1cnccn1)B(O)O [Bortezomib] (partner 0.002 µM)
# How it was run: as §1
cell line,measurement,setting,value
UMC-11,relative viability,[1]; first compound 0.04 µM,0.902
same,relative viability,[1]; first compound 0.1265 µM,1.13
same,relative viability,[1]; first compound 0.4 µM,1.08
same,relative viability,[1]; first compound 1.265 µM,1.03
same,relative viability,[1]; first compound 4 µM,0.949
same,relative viability,[2]; first compound 0.002 µM,0.849
same,relative viability,[2]; first compound 0.006325 µM,0.63
same,relative viability,[2]; first compound 0.02 µM,0.595
same,relative viability,[2]; first compound 0.06325 µM,0.58
same,relative viability,[2]; first compound 0.2 µM,0.7
same,relative viability,[3]; first compound 0.04 µM,1
same,relative viability,[3]; first compound 0.1265 µM,1.02
same,relative viability,[3]; first compound 0.4 µM,0.985
same,relative viability,[3]; first compound 1.265 µM,1.14
same,relative viability,[3]; first compound 4 µM,0.976
same,relative viability,[4]; first compound 0.04 µM,0.477
same,relative viability,[4]; first compound 0.1265 µM,0.858
same,relative viability,[4]; first compound 0.4 µM,0.744
same,relative viability,[4]; first compound 1.265 µM,0.771
same,relative viability,[4]; first compound 4 µM,0.521
